Laboratory results reported in ChEMBL document CHEMBL4130599, “VU6010608, a Novel mGlu7 NAM from a Series of N-(2-(1H-1,2,4-Triazol-1-yl)-5-(trifluoromethoxy)phenyl)benzamides” (ACS Med Chem Lett, 2017).
Values belong to the molecule of their own block, whether it stands above or below them. Calls of active or inactive are those of the source. The rule behind the calls is not given here.

How the values were obtained:
[1] = target: Metabotropic glutamate receptor 7 (Rattus norvegicus, UniProt P35400); assay: Negative allosteric modulation of rat mGlu7 expressed in HEK cells co-expressing Galpha15 assessed as reduction in L-AP4-induced intracellular calcium flux pretreated for 142 secs followed by glutamate addition and subsequent stimulation of L-AP4 for 40 secs by Fluo-4 AM dye based fluorescence assay; format: functional, cell-based
Metabotropic glutamate receptor 7, sequence (P35400 whole entry): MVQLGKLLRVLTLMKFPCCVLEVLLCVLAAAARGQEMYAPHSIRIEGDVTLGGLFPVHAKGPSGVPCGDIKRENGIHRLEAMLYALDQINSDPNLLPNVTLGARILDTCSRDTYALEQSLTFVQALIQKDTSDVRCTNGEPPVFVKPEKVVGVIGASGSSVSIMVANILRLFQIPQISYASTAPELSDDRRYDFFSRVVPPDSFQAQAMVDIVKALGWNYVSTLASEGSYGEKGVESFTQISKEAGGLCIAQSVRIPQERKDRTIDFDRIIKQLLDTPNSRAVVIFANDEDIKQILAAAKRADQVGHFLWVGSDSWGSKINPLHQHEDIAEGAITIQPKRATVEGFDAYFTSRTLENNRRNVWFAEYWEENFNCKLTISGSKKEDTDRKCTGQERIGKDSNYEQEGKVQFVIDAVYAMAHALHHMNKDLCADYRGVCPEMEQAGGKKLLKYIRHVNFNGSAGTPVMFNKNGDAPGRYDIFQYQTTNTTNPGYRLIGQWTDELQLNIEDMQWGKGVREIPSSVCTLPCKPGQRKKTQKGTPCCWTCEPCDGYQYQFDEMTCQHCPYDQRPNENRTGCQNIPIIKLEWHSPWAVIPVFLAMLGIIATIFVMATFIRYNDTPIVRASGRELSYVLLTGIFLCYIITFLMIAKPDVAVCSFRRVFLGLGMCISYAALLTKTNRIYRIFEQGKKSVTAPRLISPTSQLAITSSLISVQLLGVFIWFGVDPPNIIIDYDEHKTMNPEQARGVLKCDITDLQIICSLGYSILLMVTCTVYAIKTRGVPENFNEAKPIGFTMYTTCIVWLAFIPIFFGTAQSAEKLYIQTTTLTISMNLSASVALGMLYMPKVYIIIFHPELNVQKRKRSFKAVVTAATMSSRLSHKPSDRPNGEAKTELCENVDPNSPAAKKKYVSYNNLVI

Mus musculus = assay: Toxicity in C57/Bl6 mouse at 100 mg/kg, ip; format: organism-based; settings: in vivo
[2] = target: T1, Metabotropic glutamate receptor 8 (Rattus norvegicus, UniProt P70579); assay: Antagonist activity at rat mGlu8 expressed in HEK cells co-expressing Galpha15 assessed as reduction in L-AP4-induced intracellular calcium flux pretreated for 142 secs followed by glutamate addition and subsequent stimulation of L-AP4 for 40 secs by Fluo-4 AM dye based fluorescence assay; format: functional, cell-based
T1 sequence (P70579 whole entry): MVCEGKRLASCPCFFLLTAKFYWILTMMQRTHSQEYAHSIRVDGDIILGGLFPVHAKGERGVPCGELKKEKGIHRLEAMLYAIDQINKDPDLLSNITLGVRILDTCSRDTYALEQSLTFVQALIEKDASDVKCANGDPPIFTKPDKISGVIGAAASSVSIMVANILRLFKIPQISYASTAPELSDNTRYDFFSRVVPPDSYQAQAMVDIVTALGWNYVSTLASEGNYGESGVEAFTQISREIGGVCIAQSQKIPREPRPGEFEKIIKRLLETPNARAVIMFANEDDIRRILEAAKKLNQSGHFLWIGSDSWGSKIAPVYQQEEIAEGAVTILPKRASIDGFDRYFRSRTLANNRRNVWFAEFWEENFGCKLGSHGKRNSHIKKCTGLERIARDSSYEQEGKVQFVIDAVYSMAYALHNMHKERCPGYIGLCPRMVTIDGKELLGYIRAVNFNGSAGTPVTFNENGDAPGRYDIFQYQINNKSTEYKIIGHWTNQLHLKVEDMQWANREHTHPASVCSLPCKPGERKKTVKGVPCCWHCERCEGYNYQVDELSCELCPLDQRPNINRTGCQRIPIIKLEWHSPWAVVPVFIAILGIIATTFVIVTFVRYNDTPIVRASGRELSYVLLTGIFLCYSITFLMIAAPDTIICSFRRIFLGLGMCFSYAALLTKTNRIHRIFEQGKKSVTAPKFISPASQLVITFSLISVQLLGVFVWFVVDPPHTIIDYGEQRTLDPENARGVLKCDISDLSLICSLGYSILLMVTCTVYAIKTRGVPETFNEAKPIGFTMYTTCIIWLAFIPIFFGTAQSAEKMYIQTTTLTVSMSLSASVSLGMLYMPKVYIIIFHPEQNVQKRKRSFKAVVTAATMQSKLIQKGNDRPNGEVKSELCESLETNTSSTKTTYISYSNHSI

[3] = target: T2, Metabotropic glutamate receptor 4 (Homo sapiens, UniProt Q14833); assay: Antagonist activity at human mGlu4 expressed in CHO cells co-expressing Gqi5 assessed as reduction in L-AP4-induced intracellular calcium flux pretreated for 142 secs followed by glutamate addition and subsequent stimulation of L-AP4 for 40 secs by Fluo-4 AM dye based fluorescence assay; format: functional, cell-based
T2 sequence (Q14833 whole entry): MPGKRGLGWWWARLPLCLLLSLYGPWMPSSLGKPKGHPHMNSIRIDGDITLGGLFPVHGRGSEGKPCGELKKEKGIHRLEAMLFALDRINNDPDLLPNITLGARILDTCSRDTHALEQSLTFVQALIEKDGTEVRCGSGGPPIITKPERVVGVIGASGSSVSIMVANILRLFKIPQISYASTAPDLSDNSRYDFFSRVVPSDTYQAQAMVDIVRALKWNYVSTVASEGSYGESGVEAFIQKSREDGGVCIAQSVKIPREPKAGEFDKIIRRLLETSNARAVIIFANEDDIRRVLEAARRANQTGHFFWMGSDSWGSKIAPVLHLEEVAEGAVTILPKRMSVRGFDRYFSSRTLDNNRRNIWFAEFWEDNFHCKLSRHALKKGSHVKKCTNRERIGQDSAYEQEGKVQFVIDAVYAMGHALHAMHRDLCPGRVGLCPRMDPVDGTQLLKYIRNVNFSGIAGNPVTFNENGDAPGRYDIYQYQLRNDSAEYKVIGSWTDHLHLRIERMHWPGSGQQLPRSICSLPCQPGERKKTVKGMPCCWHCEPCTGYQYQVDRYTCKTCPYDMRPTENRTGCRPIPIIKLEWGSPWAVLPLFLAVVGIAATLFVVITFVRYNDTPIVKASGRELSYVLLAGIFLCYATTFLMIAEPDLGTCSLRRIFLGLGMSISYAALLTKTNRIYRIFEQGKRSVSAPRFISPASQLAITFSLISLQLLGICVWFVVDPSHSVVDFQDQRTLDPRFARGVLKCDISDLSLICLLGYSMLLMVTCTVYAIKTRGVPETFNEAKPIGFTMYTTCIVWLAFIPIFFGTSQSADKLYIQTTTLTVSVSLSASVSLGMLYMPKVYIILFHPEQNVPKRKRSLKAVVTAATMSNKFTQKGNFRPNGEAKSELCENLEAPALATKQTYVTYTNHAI

[4] = Protein binding in mouse plasma assessed as unbound fraction measured after 4 hrs by LC-MS/MS based equilibrium dialysis method; format: ADME, cell-free
[5] = Protein binding in rat plasma assessed as unbound fraction measured after 4 hrs by LC-MS/MS based equilibrium dialysis method; format: ADME, cell-free
[6] = Protein binding in rat brain assessed as unbound fraction measured after 6 hrs by LC-MS/MS based equilibrium dialysis method; format: ADME, tissue-based
[7] = Brain to plasma partition coefficient, Kp of the compound in cannulated Sprague-Dawley rat at 0.2 to 0.25 mg/kg, iv administered as cassette dose measured after 0.25 hrs by LC-MS/MS analysis; format: ADME, organism-based; settings: brain and plasma
[8] = Unbound brain to plasma concentration ratio in cannulated Sprague-Dawley rat at 0.2 to 0.25 mg/kg, iv administered as cassette dose measured after 0.25 hrs by LC-MS/MS analysis; format: ADME, organism-based; settings: brain and plasma, read-out: K(p,uu,brain)
[9] = target: T3, Metabotropic glutamate receptor 3 (Homo sapiens, UniProt Q14832); assay: Agonist activity at mGlu3 receptor (unknown origin); format: functional
[10] = Drug level in C57/Bl6 mouse brain at 100 mg/kg, ip by LC-MS/MS analysis; format: ADME, organism-based; settings: in vivo, read-out: Drug uptake
[11] = Drug level in C57/Bl6 mouse brain at 10 mg/kg, ip by LC-MS/MS analysis; format: ADME, organism-based; settings: in vivo, read-out: Drug uptake
[12] = Drug level in C57/Bl6 mouse plasma at 10 mg/kg, ip by LC-MS/MS analysis; format: ADME, organism-based; settings: in vivo
[13] = Unbound brain to plasma concentration ratio in C57/Bl6 mouse at 30 mg/kg, ip measured after 0.5 hrs by LC-MS/MS analysis; format: ADME, organism-based; settings: brain and plasma, read-out: K(p,uu,brain)
[14] = Volume of distribution at steady state in cannulated Sprague-Dawley rat at 0.2 to 0.25 mg/kg, iv administered as cassette dose by LC-MS/MS analysis; format: ADME, organism-based; settings: in vivo, read-out: Vdss
[15] = target: T4, Metabotropic glutamate receptor 6 (Homo sapiens, UniProt O15303); assay: Agonist activity at mGlu6 receptor (unknown origin); format: functional
T4 sequence (O15303 whole entry): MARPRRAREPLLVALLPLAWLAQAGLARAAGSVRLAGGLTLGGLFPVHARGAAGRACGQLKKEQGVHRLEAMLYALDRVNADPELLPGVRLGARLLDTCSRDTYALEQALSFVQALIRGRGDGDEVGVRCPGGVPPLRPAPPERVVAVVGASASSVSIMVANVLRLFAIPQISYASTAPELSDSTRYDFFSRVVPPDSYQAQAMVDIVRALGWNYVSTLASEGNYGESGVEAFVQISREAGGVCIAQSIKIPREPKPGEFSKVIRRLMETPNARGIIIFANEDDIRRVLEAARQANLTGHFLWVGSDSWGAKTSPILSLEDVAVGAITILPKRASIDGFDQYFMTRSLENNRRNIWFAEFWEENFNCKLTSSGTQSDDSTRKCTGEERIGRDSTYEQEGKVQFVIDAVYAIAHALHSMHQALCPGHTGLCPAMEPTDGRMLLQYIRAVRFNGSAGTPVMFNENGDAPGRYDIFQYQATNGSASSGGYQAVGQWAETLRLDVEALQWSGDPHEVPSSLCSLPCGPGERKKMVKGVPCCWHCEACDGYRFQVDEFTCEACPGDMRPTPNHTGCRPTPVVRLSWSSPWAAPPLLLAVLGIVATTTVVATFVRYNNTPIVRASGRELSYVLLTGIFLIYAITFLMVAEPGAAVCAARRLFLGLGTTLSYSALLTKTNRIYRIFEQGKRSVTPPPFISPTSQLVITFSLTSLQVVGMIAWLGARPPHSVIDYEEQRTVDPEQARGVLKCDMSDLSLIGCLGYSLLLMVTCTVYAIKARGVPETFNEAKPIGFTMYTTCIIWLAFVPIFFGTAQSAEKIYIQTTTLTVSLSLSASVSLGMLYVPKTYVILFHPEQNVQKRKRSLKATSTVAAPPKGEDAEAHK

[16] = target: T5, Metabotropic glutamate receptor 2 (Homo sapiens, UniProt Q14416); assay: Agonist activity at mGlu2 receptor (unknown origin); format: functional
T5 sequence (Q14416 whole entry): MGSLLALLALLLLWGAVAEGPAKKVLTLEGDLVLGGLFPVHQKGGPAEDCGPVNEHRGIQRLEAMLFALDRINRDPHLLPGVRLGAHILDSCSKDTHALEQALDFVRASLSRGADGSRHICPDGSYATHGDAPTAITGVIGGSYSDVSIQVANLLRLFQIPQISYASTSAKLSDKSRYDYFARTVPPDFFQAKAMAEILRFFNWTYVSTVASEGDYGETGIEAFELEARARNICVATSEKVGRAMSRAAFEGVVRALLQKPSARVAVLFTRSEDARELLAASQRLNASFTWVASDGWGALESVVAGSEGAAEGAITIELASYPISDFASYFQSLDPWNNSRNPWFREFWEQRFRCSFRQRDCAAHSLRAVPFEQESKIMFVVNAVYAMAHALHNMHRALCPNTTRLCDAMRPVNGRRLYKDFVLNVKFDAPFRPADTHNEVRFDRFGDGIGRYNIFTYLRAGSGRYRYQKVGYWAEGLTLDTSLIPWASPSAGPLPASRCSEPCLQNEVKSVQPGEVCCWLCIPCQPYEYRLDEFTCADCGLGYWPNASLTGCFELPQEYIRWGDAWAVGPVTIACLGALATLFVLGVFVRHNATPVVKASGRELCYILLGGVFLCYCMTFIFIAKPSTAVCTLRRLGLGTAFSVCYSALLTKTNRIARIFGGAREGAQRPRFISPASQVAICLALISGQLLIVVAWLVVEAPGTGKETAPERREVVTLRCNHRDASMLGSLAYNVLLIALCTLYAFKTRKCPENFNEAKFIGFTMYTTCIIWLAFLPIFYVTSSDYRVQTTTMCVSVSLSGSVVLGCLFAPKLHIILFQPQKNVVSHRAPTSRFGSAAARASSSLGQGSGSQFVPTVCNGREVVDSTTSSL

[17] = Brain to plasma partition coefficient, Kp of the compound in C57/Bl6 mouse at 30 mg/kg, ip measured after 0.5 hrs by LC-MS/MS analysis; format: ADME, organism-based; settings: brain and plasma
[18] = target: T5, Metabotropic glutamate receptor 2; assay: Antagonist activity at mGlu2 receptor (unknown origin); format: functional
[19] = Unbound brain to plasma concentration ratio in C57/Bl6 mouse at 10 mg/kg, ip measured after 0.5 hrs by LC-MS/MS analysis; format: ADME, organism-based; settings: brain and plasma, read-out: K(p,uu,brain)
[20] = Oral bioavailability in cannulated Sprague-Dawley rat; format: ADME, organism-based; settings: in vivo
[21] = Brain to plasma partition coefficient, Kp of the compound in C57/Bl6 mouse at 100 mg/kg, ip measured after 0.5 hrs by LC-MS/MS analysis; format: ADME, organism-based; settings: brain and plasma
[22] = Unbound drug level in C57/Bl6 mouse brain assessed as unbound fraction at 100 mg/kg, ip by LC-MS/MS analysis; format: ADME, organism-based; settings: in vivo
[23] = Brain to plasma partition coefficient, Kp of the compound in C57/Bl6 mouse at 10 mg/kg, ip measured after 0.5 hrs by LC-MS/MS analysis; format: ADME, organism-based; settings: brain and plasma
[24] = target: T6, Metabotropic glutamate receptor 5 (Homo sapiens, UniProt P41594); assay: Antagonist activity at mGlu5 receptor (unknown origin); format: functional
[25] = target: T6, Metabotropic glutamate receptor 5; assay: Agonist activity at mGlu5 receptor (unknown origin); format: functional
[26] = Unbound drug level in C57/Bl6 mouse brain assessed as unbound fraction at 30 mg/kg, ip by LC-MS/MS analysis; format: ADME, organism-based; settings: in vivo
[27] = target: T2, Metabotropic glutamate receptor 4; assay: Agonist activity at human mGlu4 expressed in CHO cells co-expressing Gqi5 after 142 secs by Fluo-4AM dye based calcium flux assay; format: functional, cell-based
[28] = Clearance in cannulated Sprague-Dawley rat at 0.2 to 0.25 mg/kg, iv administered as cassette dose by LC-MS/MS analysis; format: ADME, organism-based; settings: in vivo
[29] = target: T7, Metabotropic glutamate receptor 1 (Homo sapiens, UniProt Q13255); assay: Antagonist activity at mGlu1 receptor (unknown origin); format: functional
[30] = Drug level in C57/Bl6 mouse brain at 30 mg/kg, ip by LC-MS/MS analysis; format: ADME, organism-based; settings: in vivo, read-out: Drug uptake
[31] = Unbound drug level in C57/Bl6 mouse plasma assessed as unbound fraction at 100 mg/kg, ip by LC-MS/MS analysis; format: ADME, organism-based; settings: in vivo
[32] = Drug metabolism in rat hepatic S9 fraction assessed as amide hydrolysis after 60 mins in presence of NADPH/UDPGA/PAPS by LC/MS analysis; format: ADME, subcellular, Liver; settings: s9, 1 h
[33] = target: T7, Metabotropic glutamate receptor 1; assay: Agonist activity at mGlu1 receptor (unknown origin); format: functional
[34] = Unbound drug level in C57/Bl6 mouse plasma at 10 mg/kg, ip by LC-MS/MS analysis; format: ADME, organism-based; settings: in vivo
[35] = target: T1, Metabotropic glutamate receptor 8; assay: Agonist activity at rat mGlu8 expressed in HEK cells co-expressing Galpha15 measured after 142 secs by Fluo-4 AM dye based calcium flux assay; format: functional, cell-based
[36] = Unbound drug level in C57/Bl6 mouse brain assessed as unbound fraction at 10 mg/kg, ip by LC-MS/MS analysis; format: ADME, organism-based; settings: in vivo
[37] = Unbound brain to plasma concentration ratio in C57/Bl6 mouse at 100 mg/kg, ip measured after 0.5 hrs by LC-MS/MS analysis; format: ADME, organism-based; settings: brain and plasma, read-out: K(p,uu,brain)
[38] = Half life in cannulated Sprague-Dawley rat at 0.2 to 0.25 mg/kg, iv administered as cassette dose by LC-MS/MS analysis; format: ADME, organism-based; settings: in vivo
[39] = target: T3, Metabotropic glutamate receptor 3; assay: Antagonist activity at mGlu3 receptor (unknown origin); format: functional
[40] = Unbound drug level in C57/Bl6 mouse plasma assessed as unbound fraction at 30 mg/kg, ip by LC-MS/MS analysis; format: ADME, organism-based; settings: in vivo
[41] = target: T4, Metabotropic glutamate receptor 6; assay: Antagonist activity at mGlu6 receptor (unknown origin); format: functional
[42] = Drug level in C57/Bl6 mouse plasma at 30 mg/kg, ip by LC-MS/MS analysis; format: ADME, organism-based; settings: in vivo
Brain = assay: Blockade of high-frequency stimulation-induced long-term potentiation at SC-CA1 synapses in C57BL/6J mouse brain slices at 10 uM pretreated for 10 mins followed by high-frequency stimulation measured up to 60 mins; format: functional, tissue-based

Compound: CCc1nc2c(o1)CC(c1ccc(C)cc1C)CC2=O (stereo not given)
IC50 [1]: 0.676 µM
Activity (Mus musculus): Non-Toxic

Compound: COc1cc(C(=O)Nc2cc(OC(F)(F)F)ccc2-n2cncn2)ccc1OC1CCCC1
IC50 [1]: 1.4 µM

Compound: COc1cc(C(=O)Nc2cc(OC(F)(F)F)ccc2-n2cncn2)ccc1OC1CC1
fraction unbound at 4 h [4]: 0.039
IC50 [1]: 0.71 µM
fraction unbound at 4 h [5]: 0.052
fraction unbound at 6 h [6]: 0.013
Kp at 0.25 h [7]: 5.8
Kp uu at 0.25 h [8]: 1.5

Compound: CCCOc1ccc(C(=O)Nc2cc(OC(F)(F)F)ccc2-n2cncn2)cc1OC
fraction unbound at 4 h [4]: 0.019
fraction unbound at 4 h [5]: 0.017
fraction unbound at 6 h [6]: 0.009
Kp at 0.25 h [7]: 1.9
Kp uu at 0.25 h [8]: 1

Continued, in another order:

IC50 [2]: > 30 µM
IC50 [1]: 5.8 µM
IC50 [3]: > 30 µM
Compound: COc1ccc(C(=O)Nc2cc(Cl)ccc2-n2cncn2)cc1OC

fraction unbound at 4 h [4]: 0.086
fraction unbound at 4 h [5]: 0.072
fraction unbound at 6 h [6]: 0.017
Kp at 0.25 h [7]: 3.5
Kp uu at 0.25 h [8]: 0.83
Compound: CCOc1ccc(C(=O)Nc2cc(OC(F)(F)F)ccc2-n2cncn2)cc1OC

fraction unbound at 4 h [4]: 0.063
fraction unbound at 4 h [5]: 0.065
fraction unbound at 6 h [6]: 0.013
Kp at 0.25 h [7]: 4.4
Kp uu at 0.25 h [8]: 0.89
Compound: COc1cc(C(=O)Nc2cc(OC(F)(F)F)ccc2-n2cncn2)ccc1OC(C)C

EC50 [9]: > 10 µM
fraction unbound at 4 h [4]: 0.178
concentration [10]: 1550 nM
concentration [11]: 380 nM
concentration [12]: 180 nM
Kp uu at 0.5 h [13]: 0.51
Vd [14]: 6.2 L/kg
EC50 [15]: > 10 µM
EC50 [16]: > 10 µM
Kp at 0.5 h [17]: 2.36
IC50 [18]: > 10 µM
Kp uu at 0.5 h [19]: 0.44
IC50 [2]: > 10 µM
bioavailability [20]: 18.9%
Kp at 0.5 h [21]: 2
Drug uptake(free) [22]: 59 nM
Kp at 0.5 h [23]: 2.01
IC50 [24]: > 10 µM
EC50 [25]: > 10 µM
Fu ([5]; 4 h): 0.244
Drug uptake(free) [26]: 36.2 nM
EC50 [27]: > 10 µM
fraction unbound at 6 h [6]: 0.034
clearance [28]: 64.2 mL/min/kg
IC50 [29]: > 10 µM
Kp at 0.25 h [7]: 3.4
concentration [30]: 952 nM
IC50 [3]: > 10 µM
Kp uu at 0.25 h [8]: 0.48
Cp(f) [31]: 137 nM
Drug metabolism [32]: Metabolite_Detected
EC50 [33]: > 10 µM
Cp(f) [34]: 32.5 nM
EC50 [35]: > 10 µM
Drug uptake(free) [36]: 14.3 nM
Kp uu at 0.5 h [37]: 0.43
half-life [38]: 1.73 h
IC50 [39]: > 10 µM
Cp(f) [40]: 71.5 nM
IC50 [41]: > 10 µM
concentration [42]: 402 nM
Compound: COc1ccc(C(=O)Nc2cc(OC(F)(F)F)ccc2-n2cncn2)cc1OC
Activity (Mus musculus): Non-Toxic
Activity (Brain): Active
